Assay results: patent US20260137703A1, “2-AMINO-PYRIDO[2,3-D]PYRIMIDIN-7(8H)-ONE AND 7-AMINO-1-PYRIMIDO[4,5-D]PYRIMIDIN-2(1 H)-ONE DERIVATIVES AS EGFR INHIBITORS FOR THE TREATMENT OF CANCER” (Cancer Research Technology Limited, priority 2022, published 2026)

Assays:
[1] = molecular target: T1, Phospho-EGFR (Tyr1068) in H1975 cells (Homo sapiens, UniProt P00533, L858R/T790M); assay: HTRF pEGFR/total EGFR in H1975 cells; assay type: cell-based; settings: ratio pEGFR/total EGFR, compound 3 hours
T1 construct: host or cells: H1975
T1 sequence (P00533 25-1210 T790M/L858R): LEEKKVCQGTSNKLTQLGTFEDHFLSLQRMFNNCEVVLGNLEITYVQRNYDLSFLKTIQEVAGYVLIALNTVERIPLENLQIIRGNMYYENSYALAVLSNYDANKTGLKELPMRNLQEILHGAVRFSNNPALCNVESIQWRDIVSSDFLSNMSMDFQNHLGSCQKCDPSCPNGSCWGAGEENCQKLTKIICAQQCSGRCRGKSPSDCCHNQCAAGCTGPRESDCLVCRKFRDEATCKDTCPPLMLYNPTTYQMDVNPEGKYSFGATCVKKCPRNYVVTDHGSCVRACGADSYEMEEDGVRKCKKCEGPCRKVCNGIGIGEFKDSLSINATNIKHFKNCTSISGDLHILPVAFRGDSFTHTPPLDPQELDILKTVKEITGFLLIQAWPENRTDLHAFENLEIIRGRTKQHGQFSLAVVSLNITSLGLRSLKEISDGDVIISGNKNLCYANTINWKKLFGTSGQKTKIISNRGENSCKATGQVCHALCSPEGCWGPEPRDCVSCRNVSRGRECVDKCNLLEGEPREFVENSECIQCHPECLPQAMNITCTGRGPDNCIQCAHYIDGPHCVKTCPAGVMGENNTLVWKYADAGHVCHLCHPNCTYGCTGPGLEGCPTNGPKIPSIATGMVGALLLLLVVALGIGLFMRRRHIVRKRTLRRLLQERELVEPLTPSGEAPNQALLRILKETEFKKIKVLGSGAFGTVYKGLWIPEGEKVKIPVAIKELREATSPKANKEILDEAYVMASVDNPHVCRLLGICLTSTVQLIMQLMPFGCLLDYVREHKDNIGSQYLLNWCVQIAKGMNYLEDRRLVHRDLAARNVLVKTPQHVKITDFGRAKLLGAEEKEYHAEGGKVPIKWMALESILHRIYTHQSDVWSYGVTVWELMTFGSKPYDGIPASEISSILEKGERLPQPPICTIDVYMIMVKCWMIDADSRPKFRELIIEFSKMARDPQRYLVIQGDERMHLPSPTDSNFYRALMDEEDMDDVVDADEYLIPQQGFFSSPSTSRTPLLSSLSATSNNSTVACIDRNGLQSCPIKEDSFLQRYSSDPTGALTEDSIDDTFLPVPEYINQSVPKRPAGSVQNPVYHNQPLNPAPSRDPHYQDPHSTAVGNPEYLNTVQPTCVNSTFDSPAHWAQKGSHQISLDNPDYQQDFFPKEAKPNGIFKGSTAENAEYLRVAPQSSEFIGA
Method in brief: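 H1975 cells (EGFR L858R/T790M) treated 3 h with compound in 0.1% DMSO, in duplicate, 24 h after plating. Lysates assayed by HTRF for pEGFR (Tyr1068) and total EGFR at 665/620 nm; values are pEGFR/total EGFR ratio as percent of 0 μM control.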

[2] = molecular target: T2, Phospho-EGFR (Tyr1068) in H1975 C797S cells (CRISPR-edited EGFR C797S) (Homo sapiens, UniProt P00533, C797S/L858R/T790M); assay: HTRF pEGFR/total EGFR in H1975 C797S cells; assay type: cell-based; settings: ratio pEGFR/total EGFR, compound 3 hours
T2 construct: host or cells: H1975 C797S (CRISPR-edited)
T2 sequence (P00533 25-1210 T790M/C797S/L858R): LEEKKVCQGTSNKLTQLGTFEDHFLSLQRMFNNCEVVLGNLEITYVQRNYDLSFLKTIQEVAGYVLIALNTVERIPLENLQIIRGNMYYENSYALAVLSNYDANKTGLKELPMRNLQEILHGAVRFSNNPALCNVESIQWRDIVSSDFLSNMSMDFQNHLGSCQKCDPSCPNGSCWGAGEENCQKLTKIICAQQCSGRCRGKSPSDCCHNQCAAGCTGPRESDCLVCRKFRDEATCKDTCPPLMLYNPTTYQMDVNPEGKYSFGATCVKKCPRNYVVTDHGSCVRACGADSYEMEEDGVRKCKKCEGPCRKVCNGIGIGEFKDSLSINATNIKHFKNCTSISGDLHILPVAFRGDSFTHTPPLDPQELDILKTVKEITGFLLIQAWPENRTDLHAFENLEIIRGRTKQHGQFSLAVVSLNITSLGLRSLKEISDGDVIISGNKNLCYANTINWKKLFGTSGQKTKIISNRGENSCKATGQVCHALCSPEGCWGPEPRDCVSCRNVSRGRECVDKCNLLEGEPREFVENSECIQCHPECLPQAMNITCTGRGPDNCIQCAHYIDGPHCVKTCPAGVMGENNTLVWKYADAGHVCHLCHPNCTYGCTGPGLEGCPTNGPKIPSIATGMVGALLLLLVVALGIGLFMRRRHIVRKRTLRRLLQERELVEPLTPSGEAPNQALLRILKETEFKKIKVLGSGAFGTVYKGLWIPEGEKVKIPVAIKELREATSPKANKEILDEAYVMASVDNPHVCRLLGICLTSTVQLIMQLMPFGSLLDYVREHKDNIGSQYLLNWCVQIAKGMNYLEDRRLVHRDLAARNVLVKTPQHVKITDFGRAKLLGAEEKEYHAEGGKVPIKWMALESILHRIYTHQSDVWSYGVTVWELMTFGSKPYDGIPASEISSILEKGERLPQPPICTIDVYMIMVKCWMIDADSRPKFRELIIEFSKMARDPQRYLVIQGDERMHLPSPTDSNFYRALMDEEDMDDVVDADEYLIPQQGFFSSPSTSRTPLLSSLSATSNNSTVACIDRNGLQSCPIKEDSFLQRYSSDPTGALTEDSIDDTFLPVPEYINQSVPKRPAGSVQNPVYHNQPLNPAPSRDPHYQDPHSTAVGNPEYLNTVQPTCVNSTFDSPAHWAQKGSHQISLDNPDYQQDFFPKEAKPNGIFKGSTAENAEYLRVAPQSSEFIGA
Method in brief: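 Adhered H1975 C797S cells got compound for 3 h in duplicate at 0.1% DMSO final, then were lysed 30 min at room temperature. HTRF kits quantified phospho-EGFR (Tyr1068) and total EGFR (665/620 nm); results are pEGFR/total EGFR ratio as percent of 0 μM control.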

[3] = molecular target: T3, Phospho-EGFR (Tyr1068) in A431 cells (Homo sapiens, UniProt P00533); assay: HTRF pEGFR/total EGFR in A431 cells with EGF stimulation; assay type: cell-based; settings: ratio pEGFR/total EGFR, compound 2.5 hours then 100 ng/ml EGF 30 mins
T3 construct: endogenous in cells; host or cells: A431
T3 sequence (P00533 25-1210): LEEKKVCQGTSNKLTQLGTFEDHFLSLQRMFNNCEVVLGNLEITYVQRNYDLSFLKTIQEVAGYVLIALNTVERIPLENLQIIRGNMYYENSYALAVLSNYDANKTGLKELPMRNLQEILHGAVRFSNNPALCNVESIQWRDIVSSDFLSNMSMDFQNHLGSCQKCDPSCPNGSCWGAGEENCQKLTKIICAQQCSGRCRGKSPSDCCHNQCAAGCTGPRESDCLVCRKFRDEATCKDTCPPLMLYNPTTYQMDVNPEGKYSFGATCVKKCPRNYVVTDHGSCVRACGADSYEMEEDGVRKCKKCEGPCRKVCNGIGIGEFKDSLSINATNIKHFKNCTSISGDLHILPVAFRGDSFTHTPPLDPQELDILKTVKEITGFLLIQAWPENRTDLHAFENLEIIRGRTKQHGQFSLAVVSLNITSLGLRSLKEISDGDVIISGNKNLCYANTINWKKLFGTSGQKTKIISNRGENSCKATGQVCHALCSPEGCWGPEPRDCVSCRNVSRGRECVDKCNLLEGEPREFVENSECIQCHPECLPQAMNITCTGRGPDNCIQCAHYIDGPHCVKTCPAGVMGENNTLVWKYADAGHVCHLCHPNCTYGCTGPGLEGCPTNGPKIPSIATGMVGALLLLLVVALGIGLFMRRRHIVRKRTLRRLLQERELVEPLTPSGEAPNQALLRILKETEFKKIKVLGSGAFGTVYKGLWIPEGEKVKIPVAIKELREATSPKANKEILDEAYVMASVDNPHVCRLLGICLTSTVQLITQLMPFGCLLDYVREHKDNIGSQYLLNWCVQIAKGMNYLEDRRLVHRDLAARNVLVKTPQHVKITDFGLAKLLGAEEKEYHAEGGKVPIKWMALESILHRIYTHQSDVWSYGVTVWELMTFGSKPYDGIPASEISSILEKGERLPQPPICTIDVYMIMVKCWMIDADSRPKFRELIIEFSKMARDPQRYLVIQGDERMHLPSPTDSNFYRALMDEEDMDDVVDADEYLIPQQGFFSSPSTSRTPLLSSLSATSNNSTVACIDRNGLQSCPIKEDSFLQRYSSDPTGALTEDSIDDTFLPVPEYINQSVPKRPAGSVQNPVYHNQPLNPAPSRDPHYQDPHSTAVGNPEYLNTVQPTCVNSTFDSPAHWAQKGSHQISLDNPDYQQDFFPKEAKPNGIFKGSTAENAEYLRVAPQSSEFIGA
Method in brief: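 A431 cells were plated at 20,000 per well, allowed 24 h to adhere, then given compound for 2.5 h (0.1% DMSO final). They were then stimulated with 100 ng/ml EGF for 30 min and lysed. HTRF measured Tyr1068-phospho and total EGFR at 665/620 nm, with pEGFR/total EGFR expressed as % of the 0 μM control.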

[4] = molecular target: CtermHisTag-mEGFR Wild type (Homo sapiens, UniProt P00533); assay: biochemical
Chain of CtermHisTag-mEGFR Wild type (P00533 whole entry): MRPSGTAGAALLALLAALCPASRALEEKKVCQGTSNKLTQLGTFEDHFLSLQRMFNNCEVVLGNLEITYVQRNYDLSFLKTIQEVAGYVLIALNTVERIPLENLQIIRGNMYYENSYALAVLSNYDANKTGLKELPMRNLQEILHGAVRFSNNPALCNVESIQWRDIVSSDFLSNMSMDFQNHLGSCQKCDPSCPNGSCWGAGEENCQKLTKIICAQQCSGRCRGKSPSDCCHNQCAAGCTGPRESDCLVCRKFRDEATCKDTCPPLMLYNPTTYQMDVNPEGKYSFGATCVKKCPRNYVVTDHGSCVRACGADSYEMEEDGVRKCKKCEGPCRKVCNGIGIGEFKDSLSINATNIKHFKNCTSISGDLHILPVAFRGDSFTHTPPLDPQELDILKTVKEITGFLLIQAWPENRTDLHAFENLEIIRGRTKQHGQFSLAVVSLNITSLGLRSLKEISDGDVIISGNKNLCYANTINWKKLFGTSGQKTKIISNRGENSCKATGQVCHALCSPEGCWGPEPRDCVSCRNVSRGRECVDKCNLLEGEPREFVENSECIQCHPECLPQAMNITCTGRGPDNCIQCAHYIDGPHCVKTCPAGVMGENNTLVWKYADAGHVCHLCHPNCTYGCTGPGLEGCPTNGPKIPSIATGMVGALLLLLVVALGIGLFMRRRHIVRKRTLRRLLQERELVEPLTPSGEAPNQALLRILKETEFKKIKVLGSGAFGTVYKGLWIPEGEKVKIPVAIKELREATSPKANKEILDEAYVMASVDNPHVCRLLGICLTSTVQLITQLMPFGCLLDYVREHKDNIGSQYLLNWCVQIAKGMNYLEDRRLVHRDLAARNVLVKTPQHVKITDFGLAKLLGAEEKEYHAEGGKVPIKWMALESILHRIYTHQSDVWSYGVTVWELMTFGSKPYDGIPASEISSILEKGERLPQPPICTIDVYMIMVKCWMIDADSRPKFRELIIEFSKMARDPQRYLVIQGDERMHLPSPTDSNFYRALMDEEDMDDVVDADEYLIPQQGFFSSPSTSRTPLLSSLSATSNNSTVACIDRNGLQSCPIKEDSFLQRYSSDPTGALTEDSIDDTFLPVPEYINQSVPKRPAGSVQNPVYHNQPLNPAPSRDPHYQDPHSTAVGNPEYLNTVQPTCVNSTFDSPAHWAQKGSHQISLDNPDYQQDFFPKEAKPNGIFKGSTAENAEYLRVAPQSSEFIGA

| SMILES | IC50 [1] | IC50 [2] | IC50 [3] | IC50 [4] |
| --- | --- | --- | --- | --- |
| C#Cc1cc(=O)n(C)c2nc(Nc3ccc(N4CCN(C)CC4)c(OCCc4ccnn4C)c3)ncc12 [Example 220, 5-Ethynyl-8-methyl-2-((3-(2-(1-methyl-1H-pyrazol-5-yl)ethoxy)-4-(4-methylpiperazin-1-yl)phenyl)amino)pyrido[2,3-d]pyrimidin-7(8H)-one] | < 0.5 µM | < 0.5 µM | 1 to 3 µM | < 1 µM |
| C#Cc1cc(=O)n(C)c2nc(Nc3ccc(N4CCN(C)CC4)c(C(=O)NCC4CCCC4)c3)ncc12 [Example 221, N-(Cyclopentylmethyl)-5-({5-ethynyl-8-methyl-7-oxopyrido[2,3-d]pyrimidin-2-yl}amino)-2-(4-methylpiperazin-1-yl)benzamide] | 0.5 to 1 µM | 1 to 3 µM | > 3 µM | 1 to 10 µM |
| C#Cc1cc(=O)n2c3nc(ncc13)Nc1ccc(N3CCN(C)CC3)c(c1)CN(C)CCC2 [Example 226, 1^5-Ethynyl-5-methyl-3^4-(4-methylpiperazin-1-yl)-1^7,1^8-dihydro-2,5-diaza-1(2,8)-pyrido[2,3-d]pyrimidina-3(1,3)-benzenacyclooctaphan-1^7-one] | < 0.5 µM | < 0.5 µM | > 3 µM | < 1 µM |
| C#Cc1cc(=O)n2c3nc(ncc13)Nc1ccc(N3CCN(C)CC3)c(c1)OCCCCC2C (stereo not drawn) [Example 228, 1^5-Ethynyl-9-methyl-3^4-(4-methylpiperazin-1-yl)-1^7,1^8-dihydro-4-oxa-2-aza-1(2,8)-pyrido[2,3-d]pyrimidina-3(1,3)-benzenacyclononaphan-17-one] | < 0.5 µM | < 0.5 µM | > 3 µM | 1 to 10 µM |
| C#Cc1c(C)c(=O)n2c3nc(ncc13)Nc1ccc(N3CCN(C)CC3)c(c1)OCCCCC2 [Example 229, 1^5-Ethynyl-1^6-Methyl-3^4-(4-methylpiperazin-1-yl)-1^7,1^8-dihydro-4-oxa-2-aza-1(2,8)-pyrido[2,3-d]pyrimidina-3(1,3)-benzenacyclononaphan-1^7-one] | < 0.5 µM | < 0.5 µM | < 0.5 µM | < 1 µM |
| C#Cc1cc(=O)n2c3nc(ncc13)Nc1ccc(N3CCN(C)CC3)c(c1)OCCCCCC2 [Example 230, 1^5-ethynyl-3^4-(4-methylpiperazin-1-yl)-1^7,1^8-dihydro-4-oxa-2-aza-1(2,8)-pyrido[2,3-d]pyrimidina-3(1,3)-benzenacyclodecaphan-1^7-one] | < 0.5 µM | < 0.5 µM | 1 to 3 µM | < 1 µM |
| C#Cc1cc(=O)n2c3nc(ncc13)Nc1ccc(N3CCN(C)CC3)c(c1)COCCCC2 [Example 231, 1^5-Ethynyl-3^4-(4-methylpiperazin-1-yl)-1^7,1^8-dihydro-5-oxa-2-aza-1(2,8)-pyrido[2,3-d]pyrimidina-3(1,3)-benzenacyclononaphan-1^7-one] | < 0.5 µM | < 0.5 µM | 1 to 3 µM | < 1 µM |
| C#Cc1cc(=O)n2c3nc(ncc13)Nc1ccc(N3CCN(C)CC3)c(c1)OCCOCC2 [Example 232, 1^5-Ethynyl-3^4-(4-Methylpiperazin-1-yl)-1^7,1^8-dihydro-4,7-dioxa-2-aza-1(2,8)-pyrido[2,3-d]pyrimidina-3(1,3)-benzenacyclononaphan-1^7-one] | < 0.5 µM | < 0.5 µM | > 3 µM | < 1 µM |
| C#Cc1cc(=O)n2c3nc(ncc13)Nc1ccc(N3CCN(C)CC3)c(c1)OCCC[C@H]2C [Example 239, (R)-1^5-ethynyl-8-methyl-3^4-(4-methylpiperazin-1-yl)-1^7,1^8-dihydro-4-oxa-2-aza-1(2,8)-pyrido[2,3-d]pyrimidina-3(1,3)-benzenacyclooctaphan-1^7-one] | < 0.5 µM | < 0.5 µM | > 3 µM | < 1 µM |
| C#Cc1cc(=O)n2c3nc(ncc13)Nc1ccc(N3CCN(C)CC3)c(c1)CCOCC2 [Example 240, 1^5-Ethynyl-3^4-(4-methylpiperazin-1-yl)-1^7,1^8-dihydro-6-oxa-2-aza-1(2,8)-pyrido[2,3-d]pyrimidina-3(1,3)-benzenacyclooctaphan-1^7-one] | < 0.5 µM | < 0.5 µM | 1 to 3 µM | < 1 µM |
| C#Cc1cc(=O)n2c3nc(ncc13)Nc1ccc(N3CCN(CCOC)CC3)c(c1)OCCCC2 [Example 241, 1^5-Ethynyl-3^4-(4-(2-methoxyethyl)piperazin-1-yl)-1^7,1^8-dihydro-4-oxa-2-aza-1(2,8)-pyrido[2,3-d]pyrimidina-3(1,3)-benzenacyclooctaphan-1^7-one] | < 0.5 µM | < 0.5 µM | 0.5 to 1 µM | < 1 µM |

The next lines start with the values.

| IC50 [1] | IC50 [2] | IC50 [3] | IC50 [4] | SMILES |
| --- | --- | --- | --- | --- |
| < 0.5 µM | < 0.5 µM | 1 to 3 µM | < 1 µM | C#Cc1cc(=O)n2c3nc(ncc13)Nc1ccc(N3CCN(C)CC3)c(c1)NC(=O)CCC2 [Example 222, 1^5-ethynyl-3^4-(4-methylpiperazin-1-yl)-1^7,1^8-dihydro-2,4-diaza-1(2,8)-pyrido[2,3-d]pyrimidina-3(1,3)-benzenacyclooctaphane-1^7,5-dione] |
| < 0.5 µM | < 0.5 µM | 1 to 3 µM | < 1 µM | C#Cc1cc(=O)n2c3nc(ncc13)Nc1ccc(N3CCN(C)CC3)c(c1)CN(C)C(=O)CC2 [Example 223, 1^5-Ethynyl-5-methyl-3^4-(4-methylpiperazin-1-yl)-1^7,1^8-dihydro-2,5-diaza-1(2,8)-pyrido[2,3-d]pyrimidina-3(1,3)-benzenacyclooctaphane-1^7,6-dione] |
| > 3 µM | > 3 µM | > 3 µM | > 10 µM | C#Cc1cc(=O)n2c3nc(ncc13)Nc1ccc(N3CCN(C)CC3)c(c1)C(=O)NCCC2 [Example 224, 1^5-ethynyl-3^4-(4-methylpiperazin-1-yl)-1^7,1^8-dihydro-2,5-diaza-1(2,8)-pyrido[2,3-d]pyrimidina-3(1,3)-benzenacyclooctaphane-1^7,4-dione] |
| 1 to 3 µM | 1 to 3 µM | > 3 µM | > 10 µM | C#Cc1cc(=O)n2c3nc(ncc13)Nc1ccc(N3CCN(C)CC3)c(c1)N(C)C(=O)CCC2 [Example 225, 1^5-Ethynyl-4-methyl-3^4-(4-methylpiperazin-1-yl)-1^7,1^8-dihydro-2,4-diaza-1(2,8)-pyrido[2,3-d]pyrimidina-3(1,3)-benzenacyclooctaphane-1^7,5-dione] |
| > 3 µM | > 3 µM | > 3 µM | 1 to 10 µM | C#Cc1cc(=O)n2c3nc(ncc13)Nc1ccc(N3CCN(C)CC3)c(c1)CCNC(=O)C2 [Example 227, 1^5-Ethynyl-3^4-(4-Methylpiperazin-1-yl)-1^7,1^8-dihydro-2,6-diaza-1(2,8)-pyrido[2,3-d]pyrimidina-3(1,3)-benzenacyclooctaphane-1^7,7-dione] |
| 1 to 3 µM | 1 to 3 µM | > 3 µM | < 1 µM | C#Cc1cc(=O)n2c3nc(ncc13)Nc1ccc(N3CCN(C)CC3)c(c1)S(=O)(=O)NCCC2 [Example 234, 1^5-Ethynyl-3^4-(4-methylpiperazin-1-yl)-1^7,1^8-dihydro-4-thia-2,5-diaza-1(2,8)-pyrido[2,3-d]pyrimidina-3(1,3)-benzenacyclooctaphan-1^7-one 4,4-dioxide] |
| < 0.5 µM | < 0.5 µM | 0.5 to 1 µM | < 1 µM | C#Cc1cc(=O)n2c3nc(ncc13)Nc1ccc(N3CCN(C(C)C)CC3)c(c1)NC(=O)CCC2 [Example 235, 1^5-Ethynyl-3^4-(4-isopropylpiperazin-1-yl)-1^7,1^8-dihydro-2,4-diaza-1(2,8)-pyrido[2,3-d]pyrimidina-3(1,3)-benzenacyclooctaphane-1^7,5-dione] |
| < 0.5 µM | < 0.5 µM | 1 to 3 µM | < 1 µM | C#Cc1cc(=O)n2c3nc(ncc13)Nc1ccc(N3CCN(CCOC)CC3)c(c1)NC(=O)CCC2 [Example 236, 1^5-Ethynyl-3^4-(4-(2-methoxyethyl)piperazin-1-yl)-1^7,1^8-dihydro-2,4-diaza-1(2,8)-pyrido[2,3-d]pyrimidina-3(1,3)-benzenacyclooctaphane-1^7,5-dione] |
| < 0.5 µM | 0.5 to 1 µM | > 3 µM | < 1 µM | C#Cc1cc(=O)n2c3nc(ncc13)Nc1ccc(N3CCN(C)CC3)c(c1)CNC(=O)CCC2 [Example 237, 1^5-Ethynyl-3^4-(4-methylpiperazin-1-yl)-1^7,1^8-dihydro-2,5-diaza-1(2,8)-pyrido[2,3-d]pyrimidina-3(1,3)-benzenacyclononaphane-1^7,6-dione] |
| < 0.5 µM | < 0.5 µM | > 3 µM | < 1 µM | C#Cc1cc(=O)n2c3nc(ncc13)Nc1ccc(N3CCCN(C)CC3)c(c1)NC(=O)CCC2 [Example 238, 1^5-Ethynyl-3^4-(4-methyl-1,4-diazepan-1-yl)-1^7,1^8-dihydro-2,4-diaza-1(2,8)-pyrido[2,3-d]pyrimidina-3(1,3)-benzenacyclooctaphane-1^7,5-dione] |
